The first assay has as its target human recombinant GPR65 (Homo sapiens, UniProt Q8IYL9). Description: Human GPR65 cAMP HTRF antagonist assay.
Settings: not given
The assay is classed as cell-based. From the text: In one preferred embodiment, the compound prevents the increase in cytoplasmic cAMP levels expected following GPR65 activation at acidic pH. This prevention of cAMP accumulation in turn prevents downstream signalling through ICER, as described above. The “Human GPR65 cyclic adenosine monophosphate (cAMP) Homogeneous Time Resolved Fluorescence (HTRF) antagonist assay”, or simply “cAMP assay”, as described in the accompanying examples, can be used to measure the potency of GPR65 modulators, which is expressed as the concentration of compound required to reduce the increase in cAMP concentration upon GPR65 activation by 50% (i.e. an IC50).
Human GPR65 Cyclic Adenosine Monophosphate (cAMP) Homogeneous Time Resolved Fluorescence (HTRF) Antagonist Assay Procedure
IC50 data was obtained by the following procedure:
1321N1 human astrocytoma cells stably expressing human recombinant GPR65 (1321N1-hrGPR65 cells, EuroscreenFast) were cultured according to the vendor's instructions. Compounds were tested for their ability to antagonise GPR65, through measuring the concentration of cytoplasmic cAMP following treatment of the cells at a pH of 7.2 to activate GPR65 signalling and addition of the compound to be tested. The extent to which the expected rise in cAMP concentration upon GPR65 activation was suppressed by the added compound is indicative of its potency. The assay was carried out according to EuroscreenFast assay Methodology as follows.
On the day of the assay, test compounds were added to 384-well, low volume, white microtiter plates by acoustic dispensing. KRH buffer (5 mM KCl, 1.25 mM MgSO4, 124 mM NaCl, 25 mM HEPES, 13.3 mM Glucose, 1.25 mM KH2PO4 and 1.45 mM CaCl2) was adjusted to pH 6.5, pH 7.6 and pH 8.4 by adding NaOH. 1321N1-hGPR65 cells were rapidly thawed and diluted in KRH, pH 7.6 prior to centrifugation at 300×g for 5 min and resuspension in assay buffer (KRH, pH 7.6, supplemented with 1 mM 3-isobutyl-1-methylxanthine (IBMX) and 200 μM ethylenediaminetetraacetic acid (EDTA)). Cells were added to assay plates at a density of 2,000 cells per well in a volume of 5 μl. Assay plates were briefly centrifuged at 100×g and then incubated at room temperature for 30 min. Cells were stimulated by the addition of 5 μL KRH, pH 6.5, to achieve an assay pH of 7.2, while control wells received 5 μl KRH, pH 8.4 to achieve an assay pH of 7.9. Assay plates were briefly centrifuged at 100×g and then incubated at room temperature for 30 min.
Accumulation of cAMP was detected by cAMP HTRF kit (Cisbio). d2-labeled cAMP and cryptate-labeled anti-cAMP antibody in Lysis and Detection Buffer (Cisbio) were added to assay plates, and the plates were incubated at room temperature for 1 h. HTRF measurements were performed using a Pherastar FSX instrument. Acceptor and donor emission signals were measured at 665 nm and 620 nm, respectively, and HTRF ratios were calculated as signal665 nm/signal620 nm×10^4. Data were normalised to high and low control values and fitted with 4-parameter logistic regression to determine hGPR65 IC50 values for the test compounds, which are shown in Table 1.
Sequence of human recombinant GPR65 (Q8IYL9 whole entry): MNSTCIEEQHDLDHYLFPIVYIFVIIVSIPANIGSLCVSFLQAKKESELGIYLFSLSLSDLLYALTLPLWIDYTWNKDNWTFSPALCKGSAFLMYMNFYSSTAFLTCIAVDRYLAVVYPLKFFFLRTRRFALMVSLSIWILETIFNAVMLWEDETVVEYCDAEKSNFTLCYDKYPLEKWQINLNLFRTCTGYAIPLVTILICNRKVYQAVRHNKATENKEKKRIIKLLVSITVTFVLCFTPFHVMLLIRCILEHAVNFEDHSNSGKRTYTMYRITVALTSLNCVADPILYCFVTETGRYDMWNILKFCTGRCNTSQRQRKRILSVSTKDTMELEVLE
For the molecule `O=C1NN=C2C(=C[C@@H]3CC[C@H]2N3C(=O)Nc2cc(Cl)c(-c3ccc(OCC(F)(F)F)nc3)cc2F)N1` [Compound 11, (6S,9R)-N-(5-Chloro-2-fluoro-4-(6-(2,2,2-trifluoroethoxy)pyridine-3-yl)phenyl)-3-oxo-3,4,6,7,8,9-hexahydro-2H-6,9-epiminocyclohepta[e][1,2,4]triazine-10-carboxamide], the IC50 was under 500 nM.

With `O=C1NN=C2C(=CC3CCC2N3C(=O)Nc2cc(Cl)c(C(F)(F)F)cc2F)N1` (racemic) [Compound 1, (±)-N-(5-Chloro-2-fluoro-4-(trifluoromethyl)phenyl)-3-oxo-3,4,6,7,8,9-hexahydro-2H-6,9-epiminocyclohepta[e][1,2,4]triazine-10-carboxamide], the half-inhibitory concentration (IC50) is under 500 nM.

`O=C1NN=C2C(=C[C@@H]3CC[C@H]2N3C(=O)Nc2cc(Cl)c(C(F)(F)F)cc2F)N1` [Compound 8, (6S,9R)-N-(5-Chloro-2-fluoro-4-(trifluoromethyl)phenyl)-3-oxo-3,4,6,7,8,9-hexahydro-2H-6,9-epiminocyclohepta[e][1,2,4]triazine-10-carboxamide]: the IC50 was under 500 nM.

For the molecule `O=C1NN=C2C(=C[C@@H]3CC[C@H]2N3C(=O)Nc2cc(Cl)c(-c3ccc4nonc4c3)cc2F)N1` [Compound 13, (6S,9R)-N-(4-(Benzo[c][1,2,5]oxadiazol-5-yl)-5-chloro-2-fluorophenyl)-3-oxo-3,4,6,7,8,9-hexahydro-2H-6,9-epiminocyclohepta[e][1,2,4]triazine-10-carboxamide], the IC50 was under 500 nM.

In the case of `CC(C)Oc1ccc(-c2cc(F)c(NC(=O)N3[C@@H]4C=C5NC(=O)NN=C5[C@H]3CC4)cc2Cl)cn1` [Compound 10, (6S,9R)-N-(5-Chloro-2-fluoro-4-(6-isopropoxypyridin-3-yl)phenyl)-3-oxo-3,4,6,7,8,9-hexahydro-2H-6,9-epiminocyclohepta[e][1,2,4]triazine-10-carboxamide], the concentration for half-maximal inhibition (IC50) was under 500 nM.

Consider `O=C1NN=C2C(=CC3CCC2N3C(=O)Nc2cc(Cl)c(-c3cncc(F)c3)cc2F)N1` (racemic) [Compound 2, (±)-N-(5-Chloro-2-fluoro-4-(5-fluoropyridin-3-yl)phenyl)-3-oxo-3,4,6,7,8,9-hexahydro-2H-6,9-epiminocyclohepta[e][1,2,4]triazine-10-carboxamide], for which the IC50 is under 500 nM.

In the case of `O=C(Nc1cc(Cl)c(C(F)(F)F)cc1F)N1[C@@H]2C=C3NC(=S)NN=C3[C@H]1CC2` [Compound 7, (6S,9R)-N-(5-Chloro-2-fluoro-4-(trifluoromethyl)phenyl)-3-thioxo-3,4,6,7,8,9-hexahydro-2H-6,9-epiminocyclohepta[e][1,2,4]triazine-10-carboxamide], the concentration for half-maximal inhibition (IC50) was under 500 nM.

`O=C1NN=C2C(=CC3CCC2N3C(=O)Nc2cc(Cl)c(-c3ccc(F)nc3)cc2F)N1` (racemic) [Compound 3, (±)-N-(5-chloro-2-fluoro-4-(6-fluoropyridin-3-yl)phenyl)-3-oxo-3,4,6,7,8,9-hexahydro-2H-6,9-epiminocyclohepta[e][1,2,4]triazine-10-carboxamide]: the half-maximal inhibitory concentration (IC50) was under 500 nM.

With `O=C1NN=C2C(=CC3CCC2N3C(=O)Nc2cc(Cl)c(-c3ccc4nonc4c3)cc2F)N1` (racemic) [Compound 4, (±)-N-(4-(benzo[c][1,2,5]oxadiazol-5-yl)-5-chloro-2-fluorophenyl)-3-oxo-3,4,6,7,8,9-hexahydro-2H-6,9-epiminocyclohepta[e][1,2,4]triazine-10-carboxamide], the IC50 was under 500 nM.

Staying with this assay, now noted: 1321N1-hrGPR65 cells, assay pH 7.2, suppression of cAMP rise, HTRF; read-out: hGPR65 IC50 (activity class).
For `O=C1NN=C2C(=C[C@H]3CC[C@@H]2N3C(=O)Nc2cc(Cl)c(C(F)(F)F)cc2F)N1` [Compound 9, (6R,9S)-N-(5-Chloro-2-fluoro-4-(trifluoromethyl)phenyl)-3-oxo-3,4,6,7,8,9-hexahydro-2H-6,9-epiminocyclohepta[e][1,2,4]triazine-10-carboxamide], the IC50 fell in the range of 500 to 5000 nM.

With `O=C1NN=C2C(=CC3CCC2N3C(=O)Nc2cc(C(F)(F)F)on2)N1` (racemic) [Compound 5, (±)-3-Oxo-N-(5-(trifluoromethyl)isoxazol-3-yl)-3,4,6,7,8,9-hexahydro-2H-6,9-epiminocyclohepta[e][1,2,4]triazine-10-carboxamide], the half-inhibitory concentration (IC50) was in the range of 500 to 5000 nM.

As to `O=C1NN=C2C(=C[C@H]3CC[C@@H]2N3C(=O)Nc2cc(Cl)c(-c3ccc4nonc4c3)cc2F)N1` [Compound 12, (6R,9S)-N-(4-(Benzo[c][1,2,5]oxadiazol-5-yl)-5-chloro-2-fluorophenyl)-3-oxo-3,4,6,7,8,9-hexahydro-2H-6,9-epiminocyclohepta[e][1,2,4]triazine-10-carboxamide], the IC50 lay within 500 to 5000 nM.

For the molecule `CS(=O)(=O)c1nnc2c(n1)CC1CCC2N1C(=O)Nc1cc(Cl)c(C(F)(F)F)cc1F` (racemic) [Compound 6, (±)-N-(5-Chloro-2-fluoro-4-(trifluoromethyl)phenyl)-3-(methylsulfonyl)-6,7,8,9-tetrahydro-5H-6,9-epiminocyclohepta[e][1,2,4]triazine-10-carboxamide], the half-inhibitory concentration (IC50) lay in the range of 500 to 5000 nM.

What is called IC50 is the concentration at which inhibition is half-maximal.

Values taken from patent US20260070909A1, “GPR65 MODULATORS” (Pathios Therapeutics Limited, priority 2022, published 2026).
